According to patent publication US20240398784A1, “C-LINKED ISOQUINOLINE AMIDES AS LRRK2 INHIBITORS, PHARMACEUTICAL COMPOSITIONS, AND USES THEREOF” (Merck Sharp & Dohme LLC, priority 2021, published 2024):

Target: LRRK2 G2019S (Homo sapiens, UniProt Q5S007, G2019S)
Experiment: LRRK2 G2019S Km ATP LanthaScreen assay
Type: biochemical
Details: read-out: LRRK2 pIC50 (converted)

Chain of LRRK2 G2019S (Q5S007 whole entry G2019S): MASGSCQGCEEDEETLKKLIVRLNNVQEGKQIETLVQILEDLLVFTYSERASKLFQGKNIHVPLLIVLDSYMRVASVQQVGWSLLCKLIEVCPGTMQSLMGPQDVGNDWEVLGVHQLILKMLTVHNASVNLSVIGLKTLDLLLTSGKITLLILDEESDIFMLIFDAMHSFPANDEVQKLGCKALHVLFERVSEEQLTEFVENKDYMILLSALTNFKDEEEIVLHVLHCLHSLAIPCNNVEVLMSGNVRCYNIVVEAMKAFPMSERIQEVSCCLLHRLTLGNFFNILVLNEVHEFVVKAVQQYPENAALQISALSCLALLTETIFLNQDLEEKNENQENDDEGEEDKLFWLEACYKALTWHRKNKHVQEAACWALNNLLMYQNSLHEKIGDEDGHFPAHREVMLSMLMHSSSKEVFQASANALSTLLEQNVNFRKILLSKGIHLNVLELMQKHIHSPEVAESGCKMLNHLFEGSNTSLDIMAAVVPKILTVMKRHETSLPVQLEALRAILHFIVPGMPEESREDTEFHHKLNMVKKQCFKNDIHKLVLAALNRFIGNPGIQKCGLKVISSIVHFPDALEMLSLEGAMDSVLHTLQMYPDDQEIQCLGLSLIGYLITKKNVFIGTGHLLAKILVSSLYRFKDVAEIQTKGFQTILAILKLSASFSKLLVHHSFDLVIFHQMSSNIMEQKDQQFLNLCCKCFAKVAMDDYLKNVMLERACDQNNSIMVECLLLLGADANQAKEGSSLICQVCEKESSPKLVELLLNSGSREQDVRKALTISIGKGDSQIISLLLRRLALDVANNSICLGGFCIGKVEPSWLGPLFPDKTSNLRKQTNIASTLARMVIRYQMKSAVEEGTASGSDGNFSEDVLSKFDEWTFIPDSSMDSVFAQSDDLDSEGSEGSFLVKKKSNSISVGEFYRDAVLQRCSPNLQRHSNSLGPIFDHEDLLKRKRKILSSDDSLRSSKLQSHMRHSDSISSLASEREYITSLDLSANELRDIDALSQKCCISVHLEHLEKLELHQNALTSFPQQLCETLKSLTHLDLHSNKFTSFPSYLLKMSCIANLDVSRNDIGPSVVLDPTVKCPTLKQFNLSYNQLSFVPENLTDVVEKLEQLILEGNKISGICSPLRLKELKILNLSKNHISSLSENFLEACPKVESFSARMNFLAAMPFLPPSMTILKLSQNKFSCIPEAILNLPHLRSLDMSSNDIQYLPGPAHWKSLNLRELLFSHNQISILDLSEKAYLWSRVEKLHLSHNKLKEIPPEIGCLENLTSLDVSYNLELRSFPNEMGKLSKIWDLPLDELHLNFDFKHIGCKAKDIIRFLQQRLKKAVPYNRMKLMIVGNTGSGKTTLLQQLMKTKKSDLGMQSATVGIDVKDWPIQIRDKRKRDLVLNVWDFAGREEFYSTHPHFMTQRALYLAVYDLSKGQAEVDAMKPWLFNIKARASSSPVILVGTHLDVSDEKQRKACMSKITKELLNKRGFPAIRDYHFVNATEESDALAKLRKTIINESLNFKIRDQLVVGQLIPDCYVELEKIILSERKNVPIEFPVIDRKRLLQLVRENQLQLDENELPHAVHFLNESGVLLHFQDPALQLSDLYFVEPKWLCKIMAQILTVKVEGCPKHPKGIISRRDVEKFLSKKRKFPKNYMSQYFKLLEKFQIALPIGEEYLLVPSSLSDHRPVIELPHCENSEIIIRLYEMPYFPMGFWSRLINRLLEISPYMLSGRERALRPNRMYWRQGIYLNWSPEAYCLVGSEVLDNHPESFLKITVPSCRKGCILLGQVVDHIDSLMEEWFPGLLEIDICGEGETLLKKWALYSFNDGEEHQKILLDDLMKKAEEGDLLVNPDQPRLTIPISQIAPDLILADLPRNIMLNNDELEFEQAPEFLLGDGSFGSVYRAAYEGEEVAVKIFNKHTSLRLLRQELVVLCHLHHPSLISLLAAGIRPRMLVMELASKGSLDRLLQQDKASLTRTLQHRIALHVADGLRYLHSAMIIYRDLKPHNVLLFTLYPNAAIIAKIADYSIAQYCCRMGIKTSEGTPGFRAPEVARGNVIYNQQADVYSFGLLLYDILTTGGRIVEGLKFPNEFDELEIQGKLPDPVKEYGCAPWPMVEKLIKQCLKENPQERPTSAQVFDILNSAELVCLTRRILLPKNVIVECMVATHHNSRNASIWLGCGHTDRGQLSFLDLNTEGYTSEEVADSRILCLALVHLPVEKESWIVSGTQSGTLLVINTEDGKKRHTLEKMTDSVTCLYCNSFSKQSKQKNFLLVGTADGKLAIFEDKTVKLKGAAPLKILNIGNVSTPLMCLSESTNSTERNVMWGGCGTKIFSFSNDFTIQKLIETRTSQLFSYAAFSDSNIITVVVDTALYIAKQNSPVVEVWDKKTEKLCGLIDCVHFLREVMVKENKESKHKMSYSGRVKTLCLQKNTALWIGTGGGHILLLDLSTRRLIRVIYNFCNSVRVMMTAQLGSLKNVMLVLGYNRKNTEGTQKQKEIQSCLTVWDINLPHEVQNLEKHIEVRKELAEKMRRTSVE

| SMILES | IC50 |
| --- | --- |
| CC(C)c1cc2cc(NC(=O)C3CC3c3cnn(C)c3)ncc2cc1Cl (stereo not drawn) [Ex-21.1, N-(7-chloro-6-isopropylisoquinolin-3-yl)-2-(1-methyl-1H-pyrazol-4-yl)cyclopropane-1-carboxamide] | 0.0813 nM |
| C[C@@]1(N2CC[C@@H](c3cc4cc(NC(=O)[C@H]5CC56CC6)ncc4cc3Cl)[C@H](F)C2)COC[C@@H]1O [Ex-23.1, (S)-N-(7-chloro-6-((3S,4S)-3-fluoro-1-((3R,4R)-4-hydroxy-3-methyltetrahydrofuran-3-yl)piperidin-4-yl)isoquinolin-3-yl)spiro[2.2]pentane-1-carboxamide] | 0.0813 nM |
| C[C@@]1(N2CC[C@@H](c3cc4cc(NC(=O)[C@@H]5CC56CC6)ncc4cc3Cl)[C@H](F)C2)COC[C@@H]1O [Ex-23.2, (R)-N-(7-chloro-6-((3S,4S)-3-fluoro-1-((3R,4R)-4-hydroxy-3-methyltetrahydrofuran-3-yl)piperidin-4-yl)isoquinolin-3-yl)spiro[2.2]pentane-1-carboxamide] | 0.0813 nM |
